Assay [1] concerns human platelet rich plasma. The assay can be described thus: Inhibition of ADP-stimulated platelet aggregation in fresh human platelet rich plasma (Born aggregometer). Type of assay: cell-based. The following applies: for Inhibition of platelet aggregation x PGE1: relative potency with respect to PGE1, 1 minute incubation at 37°C, ADP 2 to 5 µM; for activity (anti-platelet-aggregation) times that of PGE1: summary values given in the description. As for the experimental part: Aggregation of platelets in […] of fresh human platelet. rich plasma (PRP) was monitored in a Born aggregometer.
The compound to be tested was added to the PRP at the desired concentration, and the resulting mixture incubated at 37°C for 1 minute after which platelet aggregation was stimulated by the addition of adenosine diphosphate (ADR) in a concentration just causing maximal aggregation (2 to 5 µM).
The anti-aggregatory effect of the compound was assessed by measuring the percentage inhibition of platelet aggregation in the presence of the compound as compared with when it was completely absent.

The next assay deals with blood platelets. The assay can be described thus: Aggregation tests on rabbits (combination with phosphodiesterase inhibitor). In kind it is in vivo. The following applies: dipyridamole combined with the (5S,3R) isomer.

Each structure is given as a SMILES string.

From patent publication EP0019223A1, “Optically active hydantoin derivatives, their synthesis, pharmaceutical formulations containing them, and intermediates” (THE WELLCOME FOUNDATION LIMITED, priority 1979, dated 1980) come the findings set out here.

With `O=C(O)CCCCCC[C@@H]1C(=O)NC(=O)N1CC[C@@H](O)C1CCCCC1` [[(5R),(3R)], (5R)-5-(6-carboxyhexyl)-1-[(3R) - 3-cyclohexyl 3-hydroxypropyl] hydantoin], the “Inhibition of platelet aggregation x PGE1” value (from here on “Inhibition”) in assay [1] (first of two experiments) is 0.05 x PGE1; in assay [1] (second of two experiments), 0.04 x PGE1. Also, the “activity (anti-platelet-aggregation) times that of PGE1” value (“activity … of PGE1” for short) in assay [1] is 0.05 times that of PGE1.

As to `O=C(O)CCCCCC[C@@H]1C(=O)NC(=O)N1CC[C@H](O)C1CCCCC1` [[(5R),(3S)], (5R)-5-(6-carboxyhexyl)-1-[(3S)-3-cyclohexyl-3-hydroxypropyl]hydantoin], the IC50 in assay [1] (inhibition of platelet aggregation, human PRP) is over 2 µg/mL. In assay [1] (first of two experiments), the “Inhibition” value was “inactive”. In addition, the “activity … of PGE1” value in assay [1] is “inactive”.

In the case of `O=C(O)CCCCCC[C@H]1C(=O)NC(=O)N1CC[C@@H](O)C1CCCCC1` [[(5S),(3R)], (5S)-5-(6-carboxyhexyl)-1-[(3R)-3-cyclohexyl-3-hydroxypropyl] hydantoin], the “anti-platelet-aggregation inhibitory effect relative to the activity of the corresponding racemate” value in assay [1] (compared with racemate of (5S,3R) and (5R,3S) isomers) is “at least twice”. The “Inhibition” value in assay [1] (first of two experiments) was 83 x PGE1; in assay [1] (second of two experiments) it was 47 x PGE1. In assay [1], the “activity … of PGE1” value was ~40 times that of PGE1.

As for `O=C(O)CCCCCC[C@H]1C(=O)NC(=O)N1CC[C@H](O)C1CCCCC1` [[(5S),(3S)], (5S)-5-(6-carboxyhexyl)-1-[(3S)-3-cyclohexyl-3-hydroxypropyl]hydantoin], the “Inhibition” value was found to be 0.07 x PGE1 in assay [1] (first of two experiments) and 0.05 x PGE1 in assay [1] (second of two experiments). In addition, the “activity … of PGE1” value in assay [1] is listed as 0.06 times that of PGE1.

For `OCCN(CCO)c1nc(N2CCCCC2)c2nc(N(CCO)CCO)nc(N3CCCCC3)c2n1` [dipyridamole, 2,2',2",2'"-(4,8-dipiperidinopy-rimido [5,4-d]pyrimidine-2,6-diyldinitrilo)tetraethanol, reference compound], the “potentiation of the anti-aggregatory effect of the active compound” value is “potentation of the anti-aggregatory effect” in assay [1] (dipyridamole combined with the (5S,3R) isomer, human platelet rich plasma) and “potentation of the anti-aggregatory effect” in the assay on blood platelets.

By IC50 is commonly meant the concentration that inhibits the measured activity by half. The low end stands for greater potency in that assay, the high end for weaker potency in that assay.
